# Results from US9637529B2, “Medicament for atrophy treatment or increasing cell growth” (SIMU TRADE CONSULTING GMBH & CO. LEASING KG, priority 2012, dated 2017).
# Entries after “also recorded” stand apart in the source; their conditions may differ.
# Legend:
# [1] = system: rat skeletal muscle cells (L6); test: AlamarBlue proliferation assay, L6 cells; assay type: cell-based
# Method: FIG. 2: Effect of SERF2 on Proliferation of rat skeletal muscle cells (L6). 1×10^4 L6 cells were seeded per well containing 100 μl growth medium. Cells were incubated over night at +37° C., 5% v/v CO^2 and humidified atmosphere. Prior performing the assay, viability of cells was checked under the microscope. Cells were washed three times with 100 μl DPBS per well. SERF2 was diluted […]) in DMEM and 100 μl/well were added to the cells. Finally, cells were incubated at +37° C. for various time points. Subsequently 10 μl/well AlamarBlue™ reagent (Invitrogen) was added. Plates were incubated for one hour at +37° C. Fluorescence (Ex. 570 nm, Em. 585 nm) was measured using a Varioskan Flash multi-plate reader (Thermo Scientific). Obtained Data were evaluated using Microsoft Excel and Graph Pad Prism V4.
# FIG. 6: Kinetics of the Effect of SERF2 on Proliferation of rat skeletal muscle cells (L6). Cells stimulated with SERF2 (green line) responded with proliferation and reached a max. proliferation rate after 6 days. Proliferation assay was performed essentially as in FIG. 2. Incubation times were 24, 48, 72 and 144 hrs, the SERF2 concentration added was 5 μg/ml.
# Rat derived embryonic cardiomyocytes H9c2 (ATTC CRL-1446) and embryonic skeletal muscle cells L6 (ATTC CRL-1458) were cultured in Dulbecco's Modified Eagle Medium high glucose (DMEM, Sigma Aldrich) containing 10% v/v fetal calf serum (FCS, PAA) and 1% v/v Penicillin/Streptamycin (Gibco). Cells were grown in 80 cm2 cell culture flasks (NUNC) using 15 ml growth medium. Both cell lines were incubated under humidified atmosphere at +37° C. and 5% v/v CO^2. Cells were splitted when a confluency of approximately 90% was reached. […] Cell number and viability were determined by trypanblue exclusion performed by using an automated cell analyzer (CEDEX, Innovatis). […]
# Proliferation was measured using the AlamarBlue™ assay according to the manufacturer's protocol. […] Fluorescence (Ex. 570 nm, Em. 585 nm) was measured using a Varioskan Flash multi-plate reader (Thermo Scientific). Data were evaluated using Microsoft Excel and GraphPad Prism V4.
# [2] = system: mouse satellite cells (MuMa23/P13); test: AlamarBlue proliferation assay, primary satellite cells; assay type: cell-based; conditions: 24 hrs, SERF2 20 and 4 μg/ml
# Method: FIG. 4: Effect of SERF2 on Proliferation of mouse satellite cells (MuMa23/P13). Proliferation assay was performed essentially as in FIG. 2. Incubation time was 24 hrs, added SERF2 concentrations were 20 and 4 μg/ml, respectively.
# Muscle tissue was taken from male ICR mice and minced by using scissors and a scalpel. Following incubation in protease solution (Sigma, St. Lois) for 1 h at 37° C., remaining tissue clumps were dissociated by vigorousely pipetting and loaded onto a Percoll (Pharmacia) gradient (75%, 50%, 30%). After centrifugation for 20 min at 1250×g, cells were collected from the 2nd interphase (99% satellite cells), washed and cultured at a cell density of 1×10^5 cells/ml in 6-well plates. See also Danoviz ewt al. Methods Mol Biol. 2012; 798: 21-52.
# Proliferation was measured using the AlamarBlue™ assay according to the manufacturer's protocol. Briefly, 1×10^4 cells were seeded per well containing 100 μl growth medium. Cells were incubated over night at +37° C., 5% v/v CO^2 and humidified atmosphere. Prior performing the assay, viability of cells was checked under the microscope. Usually cells reached 60% confluence. Cells were washed three times with 100 μl DPBS per well. […] Fluorescence (Ex. 570 nm, Em. 585 nm) was measured using a Varioskan Flash multi-plate reader (Thermo Scientific). Data were evaluated using Microsoft Excel and GraphPad Prism V4.
# [3] = system: human epithelial cell line (MCF-7); test: H2O2-induced apoptosis, trypan-blue staining, MCF-7; assay type: cell-based; conditions: 200 mM H2O2, SERF2 5 μg/ml, 6 hours, serum-free
# Method: Experiments were performed in 6-well plates containing 5 ml cell culture medium (serum-free) per well and were seeded at a cell density of 1*10^6 cells/well and cultured overnight. On the next day 200 mM H2O2 or 200 mM H2O2 and SERF2 (5 μg/ml) was added to cultures. After 6 hours of incubation, the adherent cells were harvested, washed 3 times in PBS and dead cells were detected by trypan-blue staining using light microscopy. Shown is the percentage of dead cells.
# Trypan Blue staining is one of the most commonly used methods to determine the cell viability using light microscopy. Trypan blue can only stain cells if their membrane is damaged.
# The question was asked whether SERF2 has an effect on growth factor deprivation- or stress-induced apoptosis. The experimental protocol included addition of Hydrogen peroxide (H2O2), which is known to cause cellular stress and consequently apoptotic death in doses below 200 μM (Cox A., Carcinogenesis. 2007, Vol. 28, 10). Furthermore apoptosis was induced by deprivation of granulocyte macrophage colony-stimulating factor (GM-CSF) in cultures of TF-1 cells. These cells are dependent on the presence of a growth factor which is absolutely necessary for growth and differentiation of TF-1 cells.
# zebrafish = test: Zebrafish heart size / heart volume; assay type: in vivo; conditions: 7 dpf zebrafish incubated with different doses of SERF2
# Method: FIG. 13: a: Changes in heart size in 7 dpf old zebrafish incubated with different doses of SERF2. b: Changes in heart volume in 7 dpf old zebrafish incubated in different concentrations of SERF2 and erythropoietin (EPO). Significant differences to control animals are indicated by asterisks.
# SERF2 was administered by a) injection of the native protein into the yolk sac of 3 day post fertilization (dpf) animals and freshly fertilized eggs (2-8 cell stage) in various protein concentrations or chronic incubation with the native protein to supply it via diffusion. For in deep analysis of angiogenic effects flk-1 transgenic animals with gfp (green fluorescent protein) labelled endothelium were used. For all other experiments wildtype (wdt) animals were used.
# Heart size was determined by measurement of end diastolic dimensions and calculation of end diastolic volume as described by Schwerte et al. (Schwerte et al. The Journal of Experimental Biology. 2003; 206 (Pt 8):1299-1307).
substance,measurement,setting,value
"SERF2: Small EDRK-rich factor 2, mature protein of 59 amino acids (SEQ ID NO: 1) (MTRGNQRELARQKNMKKQSDSVKGKRRDDGLSAAARKQRDSEIMQQKQKKANEKKEEPK; homo sapiens)",proliferative effect on L6 rat skeletal muscle cells,"[1]; AlamarBlue, single treatment, read daily until day six",proliferative effect on L6 rat skeletal muscle cells in a dose- and time-dependent manner
same,"time to max. proliferation rate, L6","[1]; SERF2 5 μg/ml, incubation 24, 48, 72 and 144 hrs",6 days
same,"time of maximum proliferative effect, L6",[1]; incubation time,three to six
same,proliferative effect on mouse satellite cells,[2],proliferative effect in a dose-dependent manner
same,"protection from H2O2-induced apoptosis (percentage of dead cells), MCF-7",[3],markedly reduced apoptosis; also recorded: protects a human epithelial cell line (MCF-7) from H2O2-induced apoptosis
same,change in heart volume,zebrafish,significant increase of the animals heart volume
